Results published in PMC5698418 (Nature Communications, 2017).
Structures can show the parent of a compound that is named as a salt. Where two headings read alike, the source gives them in different places.

System: BDNF-induced nuclear Arc expression in primary cortical neurons
Experiment: Chemogenomic screen: high-content image-based assay of BDNF-induced nuclear Arc expression (96-well)
Assay type: cell-based, mouse
How it was run: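 DIV13 mouse primary cortical neurons (30,000 cells/well) are treated with compound at 16.7 µM and BDNF, in three biological replicates. Arc and acetyl-H3K9 are immunostained and imaged at ×40, and nuclear Arc signal is quantified automatically using acetyl-H3K9 as the nuclear mask.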

[1] = BDNF-induced nuclear Arc expression, primary cortical neurons, chemogenomic screen
[2] = chemogenomic (SMART) screen, BDNF-induced nuclear Arc expression, primary cortical neurons, BDNF control 19.5
[3] = nuclear Arc-positive cells relative to DMSO + BDNF control, negative values = decrease
[4] = nuclear Arc-positive cells relative to DMSO control (BDNF), negative = decrease

Row | Compound | Percentage of cell with nuclear Arc immunostaining above 2σ threshold [2] | Fold-change — Normalized to DMSO control (BDNF) [3] | other results
1 | Nc1nnc(-c2cccc(Cl)c2Cl)c(N)n1 [Lamotrigine] |  |  | Percentage of cell with nuclear Arc immunostaining above 2σ threshold [1]: 4.8%
2 | CCN(CC)CCOCCOC(=O)C1(c2ccccc2)CCCC1 [Carbetapentane] | 17.2% |  | 
3 | CN(C)CCCN1c2ccccc2Sc2ccc(Cl)cc21 [Chlorpromazine] |  |  | Percentage of cell with nuclear Arc immunostaining above 2σ threshold [1]: 0.0%
4 | CC[C@@H](C(N)=O)N1CCCC1=O [Levetiracetam] |  |  | Percentage of cell with nuclear Arc immunostaining above 2σ threshold [1]: 7.9%
5 | O=c1cc(-c2ccc(O)c(O)c2)oc2cc(O)cc(O)c12 [Luteolin] | 22.1% | 1.1 fold | 
6 | O=C(O)C1CCCNC1 (stereo not shown) [Nipecotic acid] |  | 1.4 fold | Percentage of cell with nuclear Arc immunostaining above 2σ threshold: 26.3%
7 | NC12CC3CC(CC(C3)C1)C2 [Amantadine] | 32.9% | 1.7 fold | 
8 | CCN1CCN(c2cc(-c3ccc(F)cc3)c3c(n2)CCCCCC3)CC1 [Blonanserin] |  |  | Percentage of cell with nuclear Arc immunostaining above 2σ threshold [1]: 10.9%
9 | CCOC(=O)c1ncn2c1CN(C)C(=O)c1cc(F)ccc1-2 [Flumazenil] | 32.1% | 1.6 fold | 
10 | CN1C(=O)CC[C@H]1c1cccnc1 [Cotinine] | 30.8% | 1.6 fold | 
11 | NC(=O)N1c2ccccc2CC(=O)c2ccccc21 [Oxcarbazepine] | 23.6% | 1.2 fold | 
12 | CNC1(C)C2CCC(C2)C1(C)C (stereo not shown) [Mecamylamine] |  |  | Percentage of cell with nuclear Arc immunostaining above 2σ threshold [1]: 11.9%
13 | CNCC[C@@H](Oc1ccccc1C)c1ccccc1 [Atomoxetine] | 17.6% |  | 
14 | COc1ccc2cc3[n+](cc2c1OC)CCc1cc2c(cc1-3)OCO2 [Berberine] |  |  | Percentage of cell with nuclear Arc immunostaining above 2σ threshold [1]: 2.2%
15 | O=C1[C@H]2CCCC[C@H]2C(=O)N1CCCCN1CCN(c2nsc3ccccc23)CC1 [Perospirone] | 17.9% |  | 
16 | CNCCC(Oc1ccccc1OC)c1ccccc1 (stereo not shown) [Nisoxetine hydrochloride] |  |  | Percentage of cell with nuclear Arc immunostaining above 2σ threshold: 19.1%
17 | CNS(=O)(=O)Cc1ccc2[nH]cc(CCN(C)C)c2c1 [Sumatriptan succinate] | 23.4% | 1.2 fold | 
18 | COc1ccc2cccc(CCNC(C)=O)c2c1 [Agomelatine] | 17.6% |  | 
19 | CN1CCN(C2=Nc3ccccc3Oc3ccc(Cl)cc32)CC1 [Loxapine] | 21.2% | 1.1 fold | 
20 | CC1(C)O[C@@H]2[C@@H](CO[C@@]3(COS(N)(=O)=O)OC(C)(C)O[C@@H]23)O1 [Topiramate] |  |  | Percentage of cell with nuclear Arc immunostaining above 2σ threshold [1]: 8.8%
21 | Eburnamonine (-) | 18.5% | -1.1 fold | 

Row | Compound | Percentage of cell with nuclear Arc immunostaining above 2σ threshold [2] | Fold-change — Normalized to DMSO control (BDNF) [3] | other results
22 | CNC(C)C1CCC(N)C(OC2C(N)CC(N)C(OC3OCC(C)(O)C(NC)C3O)C2O)O1 (stereo not shown) [Gentamicin] |  |  | Percentage of cell with nuclear Arc immunostaining above 2σ threshold [1]: 10.3%
23 | Cc1nccn1CC1CCc2c(c3ccccc3n2C)C1=O (stereo not shown) [Ondansetron] | 37.6% | 1.9 fold | 
24 | NC(=O)OCC(COC(N)=O)c1ccccc1 [Felbamate] | 14.3% |  | 
25 | O=C(CCNNC(=O)c1ccncc1)NCc1ccccc1 [Nialamide] | 29.9% | 1.5 fold | 
26 | COc1ccc(-c2oc3c(CC=C(C)C)c(O[C@@H]4O[C@H](CO)[C@@H](O)[C@H](O)[C@H]4O)cc(O)c3c(=O)c2O[C@@H]2O[C@@H](C)[C@H](O)[C@@H](O)[C@H]2O)cc1 [Icariin] | 43.8% | 2.2 fold | 
27 | CCOC(=O)[C@H](CCc1ccccc1)N[C@@H](C)C(=O)N1CCC[C@H]1C(=O)O [Enalapril] | 22.4% | 1.1 fold | 
28 | CC12CC3CC(C)(C1)CC(N)(C3)C2 [Memantine] | 17.1% |  | 
29 | CCCC(CCC)C(=O)O [Valproate] |  |  | Percentage of cell with nuclear Arc immunostaining above 2σ threshold [1]: 8.4%
30 | Cc1c(-c2ccccc2)oc2c(C(=O)OCCN3CCCCC3)cccc2c1=O [Flavoxate] |  |  | Percentage of cell with nuclear Arc immunostaining above 2σ threshold [1]: 3.1%
31 | COc1ccc(C(CN(C)C)C2(O)CCCCC2)cc1 (stereo not shown) [Venlafaxine] |  |  | Percentage of cell with nuclear Arc immunostaining above 2σ threshold: 12.1%
32 | NC(=O)CN1CC(O)CC1=O (stereo not shown) [Oxiracetam] | 41.5% | 2.1 fold | 
33 | OCCN1CCN(CCCN2c3ccccc3Sc3ccc(Cl)cc32)CC1 [Perphenazine] |  |  | Percentage of cell with nuclear Arc immunostaining above 2σ threshold [1]: 1.0%
34 | C[C@]12COC(=O)C[C@@H]1CC[C@@H]1[C@@H]2CC[C@@]2(C)[C@H]1CC[C@]2(C)O [Oxandrolone] |  | 1.7 fold | Percentage of cell with nuclear Arc immunostaining above 2σ threshold: 33.5%
35 | Cc1ccc2c(c1)c1c3n2CCNC3CCC1 (stereo not shown) [Pirlindole] | 15.3% |  | 
36 | O=C(c1ccccc1)c1ccc2n1CCC2C(=O)O (stereo not shown) [Ketorolac] | 36.8% | 1.9 fold | 
37 | Cc1nccc2c1[nH]c1ccccc12 [Harmane] |  | 2.0 fold | Percentage of cell with nuclear Arc immunostaining above 2σ threshold: 38.8%
38 | COc1cc2c(NC3CCN(C)CC3)nc(N3CCCN(C)CC3)nc2cc1OCCCN(C)C [UNC 0224] | 40.5% | 2.1 fold | 
39 | CN1CCN(CCCN2c3ccccc3Sc3ccc(C(F)(F)F)cc32)CC1 [Trifluoperazine] |  |  | Percentage of cell with nuclear Arc immunostaining above 2σ threshold [1]: 0.0%
40 | CN(C)CCCOc1nn(Cc2ccccc2)c2ccccc12 [Benzydamine] | 25.2% | 1.3 fold | 
41 | COc1ccc2c3c1O[C@H]1C[C@@H](O)C=C[C@@]31CCN(C)C2 [Galantamine] |  |  | Percentage of cell with nuclear Arc immunostaining above 2σ threshold: 4.2%
42 | CC(C)S(=O)(=O)N[C@H]1CCOC[C@@H]1c1ccc(-c2ccc(C#N)s2)cc1 [PF 4778574] |  | 1.8 fold | Percentage of cell with nuclear Arc immunostaining above 2σ threshold: 35.9%

Row | Compound | Percentage of cell with nuclear Arc immunostaining above 2σ threshold [2] | Fold-change — Normalized to DMSO control (BDNF) [3] | other results
43 | CN(C)CC/C=C1\c2ccccc2CSc2ccccc21 [Dosulepin] | 16.7% |  | 
44 | COc1ccc(/C=C/c2cc(OC)cc(=O)o2)cc1 [Yangonin] | 29.7% | 1.5 fold | 
45 | Cc1nc2n(c(=O)c1CCN1CCC(c3noc4cc(F)ccc34)CC1)CCCC2O (stereo not shown) [Paliperidone] | 15.2% |  | 
46 | CCN1CCC[C@H]1CNC(=O)c1c(OC)ccc(Br)c1OC [Remoxipride] | 35.4% | 1.8 fold | 
47 | COc1ccccc1C1(O)CCN(CCCn2c3ccccc3c3ccccc32)CC1 [NNC 05-2090] |  |  | Percentage of cell with nuclear Arc immunostaining above 2σ threshold: 0.0%; Fold-change — Normalized to DMSO control (BDNF) [4]: 0.0 fold
48 | CN(C)CCC=C1c2ccccc2CCc2ccccc21 [Amitriptyline] | 12.3% |  | 
49 | Cn1c(=O)c2c(ncn2CC(O)CO)n(C)c1=O (stereo not shown) [Dyphylline] | 17.0% |  | 
50 | O=C(CCCCCCC(=O)Nc1ccccc1)NO [Vorinostat] | 19.8% | 1.0 fold | 
51 | CCOC(=O)Nc1ccc(NCc2ccc(F)cc2)cc1N [Retigabine] |  |  | Fold-change — Normalized to DMSO control (BDNF): 1.7 fold; Percentage of cell with nuclear Arc immunostaining above 2σ threshold: 32.9%
52 | CN(C)CCCC1(c2ccc(F)cc2)OCc2cc(C#N)ccc21 (stereo not shown) [Citalopram] |  |  | Percentage of cell with nuclear Arc immunostaining above 2σ threshold [1]: 6.1%
53 | COc1ccc(CNC(=O)Nc2ncc([N+](=O)[O-])s2)cc1 [AR-A014418] |  |  | Percentage of cell with nuclear Arc immunostaining above 2σ threshold [1]: 4.9%; Fold-change — Normalized to DMSO control (BDNF) [4]: -4.0 fold
54 | Cc1[nH]c2ccc(Cl)cc2c1C1=CCNCC1 [EMD-386,088] |  | 1.2 fold | Percentage of cell with nuclear Arc immunostaining above 2σ threshold: 22.7%
55 | CNC(=O)Oc1ccc2c(c1)[C@]1(C)CCN(C)[C@@H]1N2C [Physostigmine] |  |  | Percentage of cell with nuclear Arc immunostaining above 2σ threshold: 18.3%
56 | O=c1c(O)c(-c2ccc(O)c(O)c2)oc2cc(O)cc(O)c12 [Sophoretin] |  |  | Percentage of cell with nuclear Arc immunostaining above 2σ threshold [1]: 9.3%
57 | OC[C@H]1O[C@@H](OCCc2ccc(O)cc2)[C@H](O)[C@@H](O)[C@@H]1O [Salidroside] | 30.7% | 1.6 fold | 
58 | CN1CC(=O)NC1=O [1-Methylhydantoin] | 31.8% | 1.6 fold | 
59 | CCC1(c2ccccc2)C(=O)NCNC1=O [Primidone] | 17.3% |  | 
60 | O=C(c1ccc2nccnc2c1)N1CCCCC1 [Ampalex] | 40.8% | 2.1 fold | 
61 | O=c1[nH]c2cc(C(F)(F)F)c(N3CCOCC3)cc2n(CP(=O)(O)O)c1=O [Fanapanel] |  |  | Percentage of cell with nuclear Arc immunostaining above 2σ threshold [1]: 8.8%
62 | CN1CCN2c3ncccc3Cc3ccccc3C2C1 (stereo not shown) [Mirtazapine] |  |  | Percentage of cell with nuclear Arc immunostaining above 2σ threshold [1]: 4.5%
63 | Cl.O=C(O)C1=CCCN(CCON=C(c2ccccc2)c2ccccc2)C1 [NNC 711 hydrochloride] |  | 1.1 fold | Percentage of cell with nuclear Arc immunostaining above 2σ threshold: 21.4%
